Results taken from PMC10951960, “CGP7930 - An allosteric modulator of GABABRs, GABAARs and inwardly-rectifying potassium channels” (Neuropharmacology, 2023).
Where two headings read alike, the source gives them in different places.

Legend:
neuronal GABABRs = target: T1, neuronal GABABRs (Rattus norvegicus, UniProt O88871+Q9Z0U4); assay: baclofen-activated GIRK currents in hippocampal cultures, high external K+, whole-cell voltage clamp; format: cell-based; settings: read-out: EC50 for CGP7930 potentiation of baclofen response
T1 construct: endogenous in cells; host or cells: cultured rat (E18 Sprague-Dawley) hippocampal neurons, 12-17 DIV
T1 sequence (Q9Z0U4 17-960 limits assumed): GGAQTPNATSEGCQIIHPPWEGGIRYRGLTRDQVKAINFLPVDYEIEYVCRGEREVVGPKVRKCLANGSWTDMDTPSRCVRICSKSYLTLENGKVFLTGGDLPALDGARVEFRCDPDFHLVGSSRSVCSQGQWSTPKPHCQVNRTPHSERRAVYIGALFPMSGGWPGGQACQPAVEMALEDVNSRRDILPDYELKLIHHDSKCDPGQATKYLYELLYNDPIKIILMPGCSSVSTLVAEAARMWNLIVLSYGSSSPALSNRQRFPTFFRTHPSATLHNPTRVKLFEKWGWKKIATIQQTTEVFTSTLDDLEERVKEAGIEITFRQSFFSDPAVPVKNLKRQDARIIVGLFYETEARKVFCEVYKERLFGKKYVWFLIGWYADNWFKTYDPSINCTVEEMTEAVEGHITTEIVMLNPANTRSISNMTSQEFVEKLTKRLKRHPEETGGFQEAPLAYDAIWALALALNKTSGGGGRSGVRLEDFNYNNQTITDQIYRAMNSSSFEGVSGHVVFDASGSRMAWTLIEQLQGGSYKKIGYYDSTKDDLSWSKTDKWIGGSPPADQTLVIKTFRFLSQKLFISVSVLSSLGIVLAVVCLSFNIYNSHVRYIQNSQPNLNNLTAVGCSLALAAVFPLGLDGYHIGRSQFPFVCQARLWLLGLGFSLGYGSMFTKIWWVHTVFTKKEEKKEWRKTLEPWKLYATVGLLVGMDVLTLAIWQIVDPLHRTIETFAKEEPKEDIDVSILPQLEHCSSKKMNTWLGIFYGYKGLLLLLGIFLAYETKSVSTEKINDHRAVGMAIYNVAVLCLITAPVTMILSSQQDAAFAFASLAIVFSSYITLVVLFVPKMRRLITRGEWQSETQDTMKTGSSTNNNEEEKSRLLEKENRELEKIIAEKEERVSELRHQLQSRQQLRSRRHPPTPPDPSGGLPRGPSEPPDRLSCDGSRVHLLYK
T1 sequence (O88871 41-940): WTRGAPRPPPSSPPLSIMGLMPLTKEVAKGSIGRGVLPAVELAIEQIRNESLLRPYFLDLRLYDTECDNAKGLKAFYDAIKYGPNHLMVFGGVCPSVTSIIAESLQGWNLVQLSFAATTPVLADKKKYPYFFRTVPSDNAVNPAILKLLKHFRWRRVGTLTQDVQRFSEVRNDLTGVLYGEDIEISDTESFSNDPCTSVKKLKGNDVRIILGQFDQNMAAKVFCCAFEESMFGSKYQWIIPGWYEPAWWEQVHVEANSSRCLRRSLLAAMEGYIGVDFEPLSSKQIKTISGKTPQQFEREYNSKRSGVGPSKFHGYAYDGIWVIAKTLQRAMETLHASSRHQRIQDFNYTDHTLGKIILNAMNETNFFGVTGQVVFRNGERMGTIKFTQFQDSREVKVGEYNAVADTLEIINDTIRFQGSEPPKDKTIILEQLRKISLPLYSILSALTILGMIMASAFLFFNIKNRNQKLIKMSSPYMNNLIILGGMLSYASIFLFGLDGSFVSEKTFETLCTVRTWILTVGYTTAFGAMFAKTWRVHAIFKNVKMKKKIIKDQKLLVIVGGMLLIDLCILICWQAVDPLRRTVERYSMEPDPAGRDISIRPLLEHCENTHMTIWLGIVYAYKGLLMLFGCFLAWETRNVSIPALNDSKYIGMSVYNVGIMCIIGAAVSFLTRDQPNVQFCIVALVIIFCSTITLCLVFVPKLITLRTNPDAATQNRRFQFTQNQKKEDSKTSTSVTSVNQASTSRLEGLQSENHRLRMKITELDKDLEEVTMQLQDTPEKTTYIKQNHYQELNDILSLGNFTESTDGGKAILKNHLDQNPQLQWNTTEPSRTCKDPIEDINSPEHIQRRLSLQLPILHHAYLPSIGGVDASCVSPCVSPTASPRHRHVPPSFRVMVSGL
Method: (§1) Briefly, single cells derived from dissected hippocampi were seeded onto glass coverslips coated with poly-D-lysine in a plating medium containing minimum essential media with 5% v/v heat-inactivated FCS, 5% v/v heat-inactivated horse serum, penicillin-G/streptomycin (100 U/100 μg/ml), 2 mM L-glutamine, and 20 mM glucose. Two hr after plating the media was changed to a Neurobasal-A based maintenance media supplemented with 1% v/v B-27, penicillin-G/streptomycin (100 U/100 μg/ml), 0.5% v/v Glutamax and 35 mM glucose.
(§2) Spontaneous inhibitory postsynaptic currents (sIPSCs) were recorded from cultured hippocampal neurons at 12–17 days in vitro (DIV). […] GABABR-activated K^+ currents in cultured neurons were recorded in the additional presence of 2 mM kynurenic acid and 20 μM picrotoxin.
Borosilicate glass electrodes (3–5 MΩ) were filled with a K^+-based internal solution for recording GIRK currents containing (mM): 120 KCl, 2 MgCl2, 11 EGTA, 30 KOH, 10 HEPES, 1 CaCl2, 1 GTP, 2 ATP, 14 creatine phosphate, pH 7.0. GABAAR currents and sIPSCs were recorded with a Cs-based internal solution containing (mM): 120 CsCl, 1 MgCl2, 11 EGTA, 30 KOH, 10 HEPES, 1 CaCl2, and 2 K2ATP; pH 7.2. […] Cells were held at −60 mV (sIPSCs) or −60/−70 mV (K^+ currents). Voltage clamp recordings were undertaken after optimising series resistance (Rs, <10 MΩ) and compensating for the whole-cell membrane capacitance. […]

α4β3δ GABAAR = target: T2, α4β3δ GABAAR (Mus musculus, UniProt P22933+P63080+Q9D6F4); assay: whole-cell currents of recombinant GABAA receptors in HEK-293 cells (α4β3δ); format: cell-based, murine
T2 construct: expressed in transfected cells; host or cells: HEK-293T
T2 sequence (Q9D6F4 36-552): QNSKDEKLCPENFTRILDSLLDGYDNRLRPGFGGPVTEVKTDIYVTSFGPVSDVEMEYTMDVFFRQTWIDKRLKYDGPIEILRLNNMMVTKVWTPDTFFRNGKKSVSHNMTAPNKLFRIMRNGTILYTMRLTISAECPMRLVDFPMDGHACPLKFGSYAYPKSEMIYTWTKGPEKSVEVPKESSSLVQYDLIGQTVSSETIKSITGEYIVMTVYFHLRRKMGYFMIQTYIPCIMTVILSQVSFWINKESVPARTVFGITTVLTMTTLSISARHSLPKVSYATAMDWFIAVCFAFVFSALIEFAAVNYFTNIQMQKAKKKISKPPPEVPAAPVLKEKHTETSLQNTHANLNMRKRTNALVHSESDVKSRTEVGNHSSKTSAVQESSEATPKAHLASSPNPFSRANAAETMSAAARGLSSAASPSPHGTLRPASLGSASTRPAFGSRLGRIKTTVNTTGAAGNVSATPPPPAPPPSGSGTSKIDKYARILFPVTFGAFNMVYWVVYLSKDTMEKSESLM
T2 sequence (P63080 26-473): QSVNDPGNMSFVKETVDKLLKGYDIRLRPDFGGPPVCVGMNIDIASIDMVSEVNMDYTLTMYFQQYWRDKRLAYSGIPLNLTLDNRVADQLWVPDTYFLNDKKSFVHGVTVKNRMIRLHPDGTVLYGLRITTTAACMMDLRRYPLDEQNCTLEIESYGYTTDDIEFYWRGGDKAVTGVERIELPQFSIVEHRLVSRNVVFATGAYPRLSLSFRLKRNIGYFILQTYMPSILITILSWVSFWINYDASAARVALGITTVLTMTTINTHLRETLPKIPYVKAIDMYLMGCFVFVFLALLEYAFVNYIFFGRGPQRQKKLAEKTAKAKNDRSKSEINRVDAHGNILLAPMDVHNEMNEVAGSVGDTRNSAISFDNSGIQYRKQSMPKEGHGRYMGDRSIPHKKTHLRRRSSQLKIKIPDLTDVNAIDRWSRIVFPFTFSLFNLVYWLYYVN
T2 sequence (P22933 17-449 limits assumed): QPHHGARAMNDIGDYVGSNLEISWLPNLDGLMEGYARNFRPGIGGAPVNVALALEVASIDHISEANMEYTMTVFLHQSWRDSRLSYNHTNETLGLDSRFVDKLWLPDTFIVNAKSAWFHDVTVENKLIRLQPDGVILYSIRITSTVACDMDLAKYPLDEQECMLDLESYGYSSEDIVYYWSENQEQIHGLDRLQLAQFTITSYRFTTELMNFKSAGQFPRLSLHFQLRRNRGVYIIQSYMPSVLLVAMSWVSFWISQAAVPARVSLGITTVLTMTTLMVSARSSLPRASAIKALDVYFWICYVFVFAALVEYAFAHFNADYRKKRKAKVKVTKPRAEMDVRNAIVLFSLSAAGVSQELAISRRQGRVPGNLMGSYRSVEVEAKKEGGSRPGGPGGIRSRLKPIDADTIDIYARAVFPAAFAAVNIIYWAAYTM
Method: (§3) CGP55845, and other drugs, were obtained from Merck (Sigma-Aldrich) unless otherwise stated.
(§4) All cell culture reagents were acquired from ThermoFisher unless otherwise stated. […] These cells are referred to as GIRK cells throughout the text and were transiently transfected with cDNAs for eGFP, GABAB R1a and R2 in a 1:1:5 ratio applied 1–2 h after cell plating.
(§5) Spontaneous inhibitory postsynaptic currents (sIPSCs) were recorded from cultured hippocampal neurons at 12–17 days in vitro (DIV). […] For recording K^+ currents in GIRK cells and neurons, the bath solution was switched to a high K^+ solution containing 25 mM KCl and reduced NaCl (120 mM), to shift the equilibrium potential for K^+ from approximately −90 to −47 mV, thus reversing the direction of K^+ current flux to net inward. GABABR-activated K^+ currents in cultured neurons were recorded in the additional presence of 2 mM kynurenic acid and 20 μM picrotoxin.
(§6) Borosilicate glass electrodes (3–5 MΩ) were filled with a K^+-based internal solution for recording GIRK currents containing (mM): 120 KCl, 2 MgCl2, 11 EGTA, 30 KOH, 10 HEPES, 1 CaCl2, 1 GTP, 2 ATP, 14 creatine phosphate, pH 7.0. GABAAR currents and sIPSCs were recorded with a Cs-based internal solution containing (mM): 120 CsCl, 1 MgCl2, 11 EGTA, 30 KOH, 10 HEPES, 1 CaCl2, and 2 K2ATP; pH 7.2. […] Cells were held at −60 mV (sIPSCs) or −60/−70 mV (K^+ currents). Voltage clamp recordings were undertaken after optimising series resistance (Rs, <10 MΩ) and compensating for the whole-cell membrane capacitance. Membrane currents were filtered at 5 kHz (−3 dB, 6th pole Bessel, 36 dB/octave) and stored for analysis with Clampex 10.
(§7) Concentration-response curves were generated by measuring the current (I) for each ligand concentration and normalising to the maximal current response (Imax).
We explored the ability of CGP7930 to modulate different recombinant GABAARs expressed in HEK-293 cells to avoid confounds arising from heterogeneous receptor subtypes in neurons.

[1] = target: T3, GABAB receptors (R1a and R2) (Mus musculus, UniProt Q80T41+Q9WV18); assay: GABA-activated K+ currents in GIRK cells (HEK cells stably expressing Kir3.1/3.2, transfected with GABAB R1a and R2), whole-cell patch clamp; format: cell-based, murine
T3 construct: expressed in transfected cells; host or cells: HEK-293 cells stably expressing Kir3.1/3.2 (GIRK cells)
T3 sequence (Q9WV18 20-960): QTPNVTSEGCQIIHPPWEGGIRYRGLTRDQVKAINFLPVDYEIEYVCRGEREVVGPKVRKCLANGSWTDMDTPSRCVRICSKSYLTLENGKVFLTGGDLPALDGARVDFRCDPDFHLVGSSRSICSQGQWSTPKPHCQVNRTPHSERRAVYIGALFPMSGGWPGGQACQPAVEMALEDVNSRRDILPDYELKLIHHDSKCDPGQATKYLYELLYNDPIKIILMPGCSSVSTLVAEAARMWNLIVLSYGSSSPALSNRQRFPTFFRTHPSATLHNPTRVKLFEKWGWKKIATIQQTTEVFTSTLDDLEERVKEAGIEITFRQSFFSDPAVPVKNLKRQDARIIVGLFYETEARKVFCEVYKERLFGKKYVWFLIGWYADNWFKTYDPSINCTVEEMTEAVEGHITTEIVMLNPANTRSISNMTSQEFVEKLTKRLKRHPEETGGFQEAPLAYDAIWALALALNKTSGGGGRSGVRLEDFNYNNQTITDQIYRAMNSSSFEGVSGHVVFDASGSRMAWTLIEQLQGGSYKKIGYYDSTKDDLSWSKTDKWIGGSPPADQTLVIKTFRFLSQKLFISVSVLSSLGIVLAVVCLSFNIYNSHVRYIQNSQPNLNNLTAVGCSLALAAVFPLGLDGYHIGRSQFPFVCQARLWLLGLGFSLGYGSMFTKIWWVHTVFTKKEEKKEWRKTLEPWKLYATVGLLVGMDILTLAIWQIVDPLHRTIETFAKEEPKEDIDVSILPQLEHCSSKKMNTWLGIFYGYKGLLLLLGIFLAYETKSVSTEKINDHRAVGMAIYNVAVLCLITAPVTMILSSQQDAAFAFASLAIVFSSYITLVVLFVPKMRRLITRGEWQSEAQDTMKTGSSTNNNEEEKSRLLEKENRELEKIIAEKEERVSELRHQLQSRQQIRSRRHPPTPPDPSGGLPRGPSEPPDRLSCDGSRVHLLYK
T3 sequence (Q80T41 41-940): as the sequence (O88871 41-940) above, with T2A, F297Y, K356R counted along it
Method: as §3, §4, §2, §6, §7
These cells were bathed in high external K^+ concentration Krebs to reverse the direction of net K^+ current flow.

[2] = tested on: GABAARs in hippocampal neurons; assay: slow inward current directly activated by CGP7930 in hippocampal neurons in high K+ external solution and its block by GABAAR antagonists; format: cell-based, rat; settings: hippocampal neurons, high external K+
Method: as §5
CGP7930 modulation at neuronal GABABRs was also characterised using baclofen-activated GIRK currents in hippocampal cultures similarly bathed in a high external K^+ concentration.

[3] = tested on: native GABAARs in hippocampal neurons; assay: muscimol-activated and CGP7930-activated GABAAR currents in hippocampal neurons, Cs+-based internal solution; format: cell-based, rat
Method: as §1, §5, §6, §7

[4] = tested on: GABAAR-mediated sIPSCs in hippocampal neurons; assay: phasic inhibition: sIPSCs in cultured hippocampal neurons in the presence of CGP55845 (1 μM); format: cell-based, rat; settings: mean ± SEM
Method: as §1, §5, §6
sIPSCs were recorded at room temperature (20–23 °C) and detected using WinEDR and WinWCP (Strathclyde Electrophysiology Software UK), and frequency was calculated for 60 s recording epochs. For sIPSC amplitudes, several hundred events were recorded per condition and analysed as an average amplitude per cell.
For kinetic analysis, individual uncontaminated sIPSCs were isolated and the average 10–90% rise time and exponential decay times were measured from the mean sIPSC waveform. Weighted decay times are reported encompassing mono- and bi-exponentially decaying events according to the equation:τw = (A1 *τ1 + A2 *τ2) / (A1 + A2)where τ1 and τ2 are exponential decay time constants, and A1 and A2 are the relative amplitude contributions of τ1 and τ2, respectively.

EC50 (neuronal GABABRs): 0.9 ± 0.6 µM | IC50 (α4β3δ GABAAR): 19.6 ± 13.1 µM | EC50 (α4β3δ GABAAR; EC50 of GABA EC20 modulation curve, α4β3δ, ∼EC20 GABA, n = 7): 1 ± 0.3 µM | EC50 (α4β3δ GABAAR; α4β3δ (αβδ), read-out: EC50 for direct activation by CGP7930 alone): 13.1 ± 1.4 µM | threshold for direct activation (α4β3δ GABAAR; α4β3δ, CGP7930 alone): 1 to 3 µM | potentiation reached, of the maximum GABA current activation of GABABRs ([1]; GIRK cells, ∼EC20 GABA): ~30% | concentration at which GABABR signalling is inhibited ([1]; highlights statement): > 3 µM | EC50 ([1]; read-out: EC50 for CGP7930 modulating EC20 GABAB receptor activated currents): 11.1 ± 7 µM | IC50 ([1]; read-out: IC50 for CGP7930 modulating EC20 GABAB receptor activated currents): 10.5 ± 2 µM | EC50 ([3]; hippocampal neurons, n = 8, read-out: EC50 for direct activation (CGP7930 alone)): 5.2 ± 0.1 µM | EC50 ([3]; ∼EC10-15 muscimol (0.5 μM), direct effect subtracted, n = 10, read-out: EC50 for CGP7930 potentiation of muscimol response): 2 ± 1.1 µM | IC50 ([3]; ∼EC10-15 muscimol (0.5 μM), direct effect subtracted, n = 10, read-out: IC50 of bell-shaped muscimol potentiation curve): 7.9 ± 1.8 µM
SMILES: CC(C)(CO)Cc1cc(C(C)(C)C)c(O)c(C(C)(C)C)c1 [CGP7930, 3-(3′,5′-Di-tert-butyl-4′-hydroxy) phenyl-2,2-dimethylpropanol]
direct receptor activation of GABABRs ([1]; GIRK cells, CGP7930 pre-applied alone): no indication of direct receptor activation | concentration at which pre-application caused a slow inward current [2]: > 3 µM | maximal direct activation compared to maximal GABAAR activation by saturating muscimol ([3]; hippocampal neurons, n = 8): 42.1 ± 1.8% | sIPSC Amplitude ([4]; 100 nM): −70.0 ± 8.9 (7) pA | sIPSC Decay τ (weighted decay time) ([4]; 100 nM): 61.9 ± 7.2 (7) ms | sIPSC Frequency ([4]; 100 nM): 3.28 ± 0.62 (8) Hz | sIPSC Rise time (10–90%) ([4]; 100 nM): 2.5 ± 0.20 (9) ms | sIPSC Amplitude ([4]; 500 nM): −73.9 ± 8.8 (7) pA | sIPSC Decay τ (weighted decay time) ([4]; 500 nM): 100.8 ± 11 (7) ms | sIPSC Frequency ([4]; 500 nM): 1.53 ± 0.32 (8) Hz | sIPSC Rise time (10–90%) ([4]; 500 nM): 3.2 ± 0.39 (9) ms | sIPSC Amplitude ([4]; 1 μM): −124.6 ± 37.7 (7) pA | sIPSC Decay τ (weighted decay time) ([4]; 1 μM): 205.5 ± 117 (7) ms | sIPSC Frequency ([4]; 1 μM): 0.38 ± 0.07 (8) Hz | sIPSC Rise time (10–90%) ([4]; 1 μM): 16.1 ± 5.2 (9) ms
